Results as given in US6414037B1 (Pharmascience, priority 1998, dated 2002).

Test system: C3H/10T1/2 clone 8 cells
Assay: Two-stage transformation assay in C3H10T1/2 cells
Format: cell-based, mouse
Settings: DMBA (0.25 μg/ml), TPA (0.1 μg/ml)
Description: This 10T1/2 cell line of mouse embryo fibroblasts has been widely used as an experimental system to study neoplastic transformation induced by a variety of agents, such as polycyclic hydrocarbons, methylating agents, and X-rays. Two-stage transformation assays, with 3-methylcholanthrene (MCA) or DMBA as inducer and TPA as promoter, were performed in these tests.
C3H10T1/2 Cl 8 cells were purchased from the American Type Culture Collection (ATCC CCL 226, Rockville, Md.) and maintained in Eagle's basal medium with Earle's salts (EBME) containing 10% (v/v) fetal bovine serum (FBS, Gibco Laboratories, Chagrin Falls, Ohio) without antibiotics, and sodium bicarbonate (2.2 gl). Cells were seeded at 5×10^4 per 75 cm^2 flask and grown in a humidified incubator containing 5% carbon dioxide in air at 37° C. Cells used in all these experiments were passage between 10-13.
Two-stage transformation assays in C3H10T1/2 cells were performed according to a procedure modified from that described in Mondal et al. (1976) Cancer Res. 36:2254-2260. One thousand cells obtained from freshly confluent flasks were seeded per well in 12-well plate containing 2 ml of medium (12 wells per experimental point). After incubation at 37° C. for three days, MCA or DMBA (2 mg/ml stock solution in DMSO) was added to give final concentrations of 0.25 μg/ml. Carcinogen-containing medium was removed from the growing cultures after 24 hours and cells were rinsed once with PBS before addition of fresh EBME supplemented with 10% FBS and gentamycin (25 μg/ml). […] TPA and test compounds were added to the medium each time the medium was changed. Medium was changed on all plates twice weekly. After confluency was reached, the FBS concentration was reduced to 5% and amphotericin B (fungizone, 1.5 μg/ml) was added to the medium (see Reznikoff et al. (1973) Cancer Res. 33:3239-3249 and Bertram (1979) Cancer Lett. 7:289-298). Subsequent medium changes were performed weekly. Cultures were fixed with methanol and stained with Giemsa at the seventh week. Type II and III transformed foci were scored according to the teachings of Landolph “Transformation Assay of Established Cell Lines: Mechanism and Application,” Eds. Kakunaga et al. (Toronto: Oxford University Press, 1985), at pp. 185-199.

[1] = all-trans-retinyl acetate (0.3 μg/ml)

Row | Structure (SMILES) | No. of wells foci/total no. of wells [1] | Total No. of foci/no. wells scored [1] | Total No. type II [1] | Total No. type III [1] | Wells with foci (%) [1] [%] | No. of wells foci/total no. of wells (aspirin 200 μM) | Total No. of foci/no. wells scored (aspirin 200 μM) | Total No. type II (aspirin 200 μM) | Total No. type III (aspirin 200 μM) | Wells with foci (%) (aspirin 200 μM)
1 | CC(=O)OC/C=C(C)/C=C/C=C(C)/C=C/C1=C(C)CCCC1(C)C [all-trans-retinyl acetate] | 0/12 | 0/12 | 0 | 0 | 0 | – | – | – | – | –
2 | CC(=O)Oc1ccccc1C(=O)O [aspirin] | – | – | – | – | – | 0/12 | 0/12 | 0 | 0 | 0
